This is an account of results in patent publication US20250242031A1, “POLYMER SALTS FOR IMPROVED DRUG DELIVERY FROM AMORPHOUS SOLID DISPERSIONS” (Purdue Research Foundation, priority 2022, published 2025).

Converted amounts (≈) assume the structure as drawn.

A short description of this data set: Drug amorphous solubility. Format: physicochemical. Conditions: aqueous buffer; miconazole, dissolution medium pH 6.8.

Take `Clc1ccc(COC(Cn2ccnc2)c2ccc(Cl)cc2Cl)c(Cl)c1` (stereo not shown) [miconazole]: the solubility (usually the dissolved amount per volume that the medium holds) is around 5 µg/mL (≈ 12 µM).
